# Where two headings read alike, the source gives them in different places.
# Tests used:
# E. coli biofilms = assay: Biofilm growth assay (spreading biofilm on semi-solid agar), E. coli; type: cell-based; conditions: Escherichia coli, read-out: E. coli: concentration that reduces the area of the spreading biofilm by greater than or equal to 85%
# Summary of the method: (§1)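 Compound added to semi-solid agar: M8 with 0.2% glucose, 100 μM CaCl2, 1 mM MgSO4, 0.5% Casamino acids (P. aeruginosa) or LB with 0.6% agar, 0.5% glucose (E. coli). Center-inoculated with 5 μL overnight culture, incubated overnight at 37 °C; value is concentration (μg/ml) reducing spreading area ≥85% versus negative controls.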
# P. aeruginosa biofilms = assay: Biofilm growth assay (spreading biofilm on semi-solid agar), P. aeruginosa; type: cell-based; conditions: Pseudomonas aeruginosa, read-out: P. aeruginosa: concentration that reduces the area of the spreading biofilm by greater than or equal to 85%
# Summary of the method: as §1
# [1] = biofilm growth assay, overnight 37° C., vs negative controls, Tables 1-5
melting point,Compound,IC85 (E. coli biofilms; [1]) [µg/mL],IC85 (P. aeruginosa biofilms; [1]) [µg/mL],IC85 (E. coli biofilms) [µg/mL],IC85 (P. aeruginosa biofilms) [µg/mL]
195 to 210 °C (dec.),"Cn1nc([C@]23CCC(C)(C)CC2C2=CCC4[C@@]5(C)Cc6c(n[nH]c6N)C(C)(C)C5CC[C@@]4(C)[C@]2(C)CC3)cc1N (stereo partly drawn) [Compound 72, (4aS,6aS,6bR,8aR,13aR,15bS)-4-a-(5-Amino-1-methyl-1H-pyrazol-3-yl)-2,2,6a,6b,9,9,13a-heptamethyl-2,3,4,4a,5,6,6a,6b,7,8,8a,9,11,13,13a,13b,14,15b-octadecahydro-1H-chryseno[1,2-f]indazol-12-amine]",> 2,1,–,–
> 300 °C,"CC1(C)CC[C@]2(C(=O)Nc3cc(S)n[nH]3)CC[C@]3(C)C(=CCC4[C@@]5(C)Cc6c(n[nH]c6N)C(C)(C)C5CC[C@]43C)C2C1 (stereo partly drawn) [Compound 79, (4aS,6aS,6bR,13aR)-12-Amino-N-(3-mercapto-1H-pyrazol-5-yl)-2,2,6a,6b,9,9,13a-heptamethyl-2,3,4,4a,5,6,6a,6b,7,8,8a,9,11,13,13a,13b,14,15b-octadecahydro-1H-chryseno[1,2-f]indazole-4-a-carboxamide]",0.5,0.25,–,–
> 300 °C,"CC1(C)CC[C@]2(C(=O)Nc3cc(N)n[nH]3)CC[C@]3(C)C(=CCC4[C@@]5(C)Cc6c(n[nH]c6N)C(C)(C)C5CC[C@]43C)C2C1 (stereo partly drawn) [Compound 69, (4aS,6aS,6bR,13aR)-12-amino-N-(3-amino-1H-pyrazol-5-yl)-2,2,6a,6b,9,9,13a-heptamethyl-2,3,4,4a,5,6,6a,6b,7,8,8a,9,11,13,13a,13b,14,15b-octadecahydro-1H-chryseno[1,2-f]indazole-4-a-carboxamide]",1,1,–,–
> 300 °C,"CC1(C)CC[C@]2(c3n[nH]c(O)c3N3CCNCC3)CC[C@]3(C)C(=CCC4[C@@]5(C)Cc6c(n[nH]c6N)C(C)(C)C5CC[C@]43C)C2C1 (stereo partly drawn) [Compound 90, 3-((4aS,6aS,6bR,13aR)-12-Amino-2,2,6a,6b,9,9,13a-heptamethyl-2,3,4,4a,5,6,6a,6b,7,8,8a,9,11,13,13a,13b,14,15b-octadecahydro-1H-chryseno[1,2-f]indazol-4-a-yl)-4-(piperazin-1-yl)-1H-pyrazol-5-ol]",1,0.5,–,–
> 300 °C,"CC1(C)CC[C@]2(c3n[nH]c(O)c3CCNC(N)=O)CC[C@]3(C)C(=CCC4[C@@]5(C)Cc6c(n[nH]c6N)C(C)(C)C5CC[C@]43C)C2C1 (stereo partly drawn) [Compound 87, 1-(2-(3-((4aS,6aS,6bR,13aR)-12-Amino-2,2,6a,6b,9,9,13a-heptamethyl-2,3,4,4a,5,6,6a,6b,7,8,8a,9,11,13,13a,13b,14,15b-octadecahydro-1H-chryseno[1,2-f]indazol-4-a-yl)-5-hydroxy-1H-pyrazol-4-yl)ethyl)urea]",1,0.5,–,–
> 300 °C,"C/C=C/C1=C2[C@@H]3CC(C)(C)CC[C@]3(C(=O)O)CC[C@@]2(C)[C@]2(C)CC[C@H]3C(C)(C)c4n[nH]c(N)c4C[C@]3(C)C2C1 (stereo partly drawn) [Example 5, (4aS,6aS,6bR,8aR,13aR,15bS)-12-Amino-2,2,6a,6b,9,9,13a-heptamethyl-15-((E)-prop-1-enyl)-2,3,4,4a,5,6,6a,6b,7,8,8a,9,11,13,13a,13b,14,15b-octadecahydro-1H-chryseno[1,2-f]indazole-4-a-carboxylic acid]",1,0.5,–,–

Compound,melting point,IC85 (E. coli biofilms; [1]) [µg/mL],IC85 (P. aeruginosa biofilms; [1]) [µg/mL],IC85 (E. coli biofilms) [µg/mL],IC85 (P. aeruginosa biofilms) [µg/mL]
"CC1(C)CC[C@]2(C(=O)Nc3nnn[nH]3)CC[C@]3(C)C(=CCC4[C@@]5(C)Cc6c(n[nH]c6N)C(C)(C)C5CC[C@]43C)C2C1 (stereo partly drawn) [Compound 61, (4aS,6aS,6bR,13aR)-12-Amino-2,2,6a,6b,9,9,13a-heptamethyl-N-(1H-tetrazol-5-yl)-2,3,4,4a,5,6,6a,6b,7,8,8a,9,11,13,13a,13b,14,15b-octadecahydro-1H-chryseno[1,2-f]indazole-4-a-carboxamide]",> 300 °C,–,–,0.5,0.5

# From patent US8324264B1, “Inhibitors of bacterial biofilms and related methods” (Sequoia Sciences, Inc., priority 2011, dated 2012)
